In patent US20240208992A1, “MACROCYCLES AS CFTR MODULATORS” (Idorsia Pharmaceuticals Ltd, priority 2021, published 2024):

Molecular target: human F508del-CFTR (Homo sapiens, UniProt P13569, DEL508-508)
Experiment: F508del-CFTR cell surface expression (corrector activity), DiscoveRx ß-galactosidase complementation chemiluminescence assay in recombinant U2OS cell line;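 further: U2OS cells co-expressing ProLink-tagged F508del-CFTR and a membrane-anchored enzyme acceptor, where more surface CFTR restores β-galactosidase activity measured by chemiluminescence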
Conditions: 16h compound incubation; for EC50: EC50, F508del-CFTR cell surface expression; for Emax: U2OS, in relation to the Emax of the corrector lumacaftor (=100%)
[1] = U2OS cell line, arithmetic mean values

Chain of human F508del-CFTR (P13569 with tags, fused parts or gaps DEL508-508): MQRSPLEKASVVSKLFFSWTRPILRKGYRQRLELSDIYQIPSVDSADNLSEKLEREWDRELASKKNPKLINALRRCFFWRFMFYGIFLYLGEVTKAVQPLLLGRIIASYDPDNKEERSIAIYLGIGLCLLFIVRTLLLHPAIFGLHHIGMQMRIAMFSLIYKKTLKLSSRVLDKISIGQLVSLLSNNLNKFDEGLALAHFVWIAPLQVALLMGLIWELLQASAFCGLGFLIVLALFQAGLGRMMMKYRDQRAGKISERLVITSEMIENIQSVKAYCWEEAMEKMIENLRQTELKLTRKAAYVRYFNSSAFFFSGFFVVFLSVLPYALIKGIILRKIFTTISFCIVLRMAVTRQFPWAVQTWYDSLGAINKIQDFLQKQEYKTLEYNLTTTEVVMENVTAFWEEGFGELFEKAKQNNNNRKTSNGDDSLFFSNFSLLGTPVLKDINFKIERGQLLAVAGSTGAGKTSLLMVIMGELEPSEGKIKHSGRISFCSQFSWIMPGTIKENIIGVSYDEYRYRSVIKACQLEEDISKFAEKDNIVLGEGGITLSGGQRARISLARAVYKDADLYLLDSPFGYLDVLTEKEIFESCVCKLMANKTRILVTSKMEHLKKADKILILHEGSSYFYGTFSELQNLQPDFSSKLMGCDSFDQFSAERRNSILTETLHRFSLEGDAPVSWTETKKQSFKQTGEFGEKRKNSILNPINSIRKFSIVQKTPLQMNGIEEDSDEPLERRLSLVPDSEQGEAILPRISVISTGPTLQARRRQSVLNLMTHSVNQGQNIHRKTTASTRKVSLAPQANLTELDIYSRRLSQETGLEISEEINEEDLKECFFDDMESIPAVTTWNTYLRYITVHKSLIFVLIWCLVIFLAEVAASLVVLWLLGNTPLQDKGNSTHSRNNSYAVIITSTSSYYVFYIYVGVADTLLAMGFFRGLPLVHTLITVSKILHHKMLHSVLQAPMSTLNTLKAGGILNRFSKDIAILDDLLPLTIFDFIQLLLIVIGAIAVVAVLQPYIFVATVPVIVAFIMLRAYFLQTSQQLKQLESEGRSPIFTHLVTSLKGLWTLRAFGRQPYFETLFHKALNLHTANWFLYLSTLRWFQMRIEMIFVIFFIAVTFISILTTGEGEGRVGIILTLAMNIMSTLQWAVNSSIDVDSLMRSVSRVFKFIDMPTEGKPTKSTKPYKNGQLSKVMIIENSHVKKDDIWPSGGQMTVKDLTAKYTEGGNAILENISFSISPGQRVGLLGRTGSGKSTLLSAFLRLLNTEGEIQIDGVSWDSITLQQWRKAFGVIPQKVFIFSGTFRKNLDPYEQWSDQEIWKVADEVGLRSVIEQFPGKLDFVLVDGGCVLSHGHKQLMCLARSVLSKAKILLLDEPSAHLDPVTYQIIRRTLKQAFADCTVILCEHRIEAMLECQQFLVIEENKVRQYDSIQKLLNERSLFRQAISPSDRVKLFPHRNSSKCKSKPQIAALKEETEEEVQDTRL

| SMILES | EC50 (U2OS cells, geomean of several measurements) [nM] | Emax (U2OS cells, arithmetic mean) [%] | EC50 (U2OS cell line, geomean values) [nM] | Emax [1] [%] |
| --- | --- | --- | --- | --- |
| COc1cc(CCNC(=O)[C@@H]2CC(=O)N(C)[C@@H](CC(C)C)C(=O)N(C)[C@@H](CC(F)(F)F)C(=O)N[C@H](Cc3ccccc3)COc3ccc4nc(C)oc4c3C(=O)N2)on1 (mixture of isomers) [Example 974, (8R,11RS,14S,18S)-8-benzyl-14-isobutyl-N-(2-(3-methoxyisoxazol-5-yl)ethyl)-2,12,15-trimethyl-10,13,16,20-tetraoxo-11-(2,2,2-trifluoroethyl)-7,8,9,10,11,12,13,14,15,16,17,18,19,20-tetradecahydrooxazolo[4′,5′:5,6]benzo[1,2-p][1]oxa[4,7,10,14]tetraazacycloheptadecine-18-carboxamide] | 703 | 440 | – | – |
| CC(C)C[C@H]1C(=O)N(CCC(C)(C)C)CC(=O)N[C@H](Cc2ccccc2)COc2cc3c(cc2C(=O)N[C@H](C(=O)NCCc2ccc4c(c2)OCO4)CC(=O)N1C)OCO3 (racemic) [Example 1, (7R,13S,17RS)-N-(2-(benzo[d][1,3]dioxol-5-yl)ethyl)-7-benzyl-11-(3,3-dimethylbutyl)-13-isobutyl-14-methyl-9,12,15,19-tetraoxo-6,7,8,9,10,11,12,13,14,15,16,17,18,19-tetradecahydro-[1,3]dioxolo[4′,5′:4,5]benzo[1,2-p][1]oxa[4,7,10,14]tetraazacycloheptadecine-17-carboxamide] | – | – | 56 | 105 |
| CC(C)C[C@H]1C(=O)N(CCc2ccccc2)CC(=O)N[C@H](Cc2ccccc2)COc2cc3c(cc2C(=O)N[C@H](C(=O)NCCc2ccc4c(c2)OCO4)CC(=O)N1C)OCO3 (racemic) [Example 5, (7R,13S,17RS)-N-(2-(benzo[d][1,3]dioxol-5-yl)ethyl)-7-benzyl-13-isobutyl-14-methyl-9,12,15,19-tetraoxo-11-phenethyl-6,7,8,9,10,11,12,13,14,15,16,17,18,19-tetradecahydro-[1,3]dioxolo[4′,5′:4,5]benzo[1,2-p][1]oxa[4,7,10,14]tetraazacycloheptadecine-17-carboxamide] | – | – | 369 | 109 |
| CC(C)C[C@H]1C(=O)N(CCCOCc2ccccc2)CC(=O)N[C@H](Cc2ccccc2)COc2cc3c(cc2C(=O)N[C@H](C(=O)NCCc2ccc4c(c2)OCO4)CC(=O)N1C)OCO3 (racemic) [Example 6, (7R,13S,17RS)-N-(2-(benzo[d][1,3]dioxol-5-yl)ethyl)-7-benzyl-11-(3-(benzyloxy)propyl)-13-isobutyl-14-methyl-9,12,15,19-tetraoxo-6,7,8,9,10,11,12,13,14,15,16,17,18,19-tetradecahydro-[1,3]dioxolo[4′,5′:4,5]benzo[1,2-p][1]oxa[4,7,10,14]tetraazacycloheptadecine-17-carboxamide] | – | – | 420 | 112 |
| COc1cc2c(cc1OC)C(=O)N[C@H](C(=O)NCCc1ccc3c(c1)OCO3)CC(=O)N(C)[C@@H](CC1CC1)C(=O)N(CCC1CCCCC1)CC(=O)N[C@H](Cc1ccccc1)CO2 (racemic) [Example 9, (3R,9S,13RS)-N-(2-(benzo[d][1,3]dioxol-5-yl)ethyl)-3-benzyl-7-(2-cyclohexylethyl)-9-(cyclopropylmethyl)-17,18-dimethoxy-10-methyl-5,8,11,15-tetraoxo-2,3,4,5,6,7,8,9,10,11,12,13,14,15-tetradecahydrobenzo[p][1]oxa[4,7,10,14]tetraazacycloheptadecine-13-carboxamide] | – | – | 360 | 130 |
| COc1cc2c(cc1OC)C(=O)N[C@H](C(=O)NCCc1ccc3c(c1)OCO3)CC(=O)N(C)[C@@H](CC1CCCC1)C(=O)N(CCC1CCCCC1)CC(=O)N[C@H](Cc1ccccc1)CO2 (racemic) [Example 10, (3R,9S,13RS)-N-(2-(benzo[d][1,3]dioxol-5-yl)ethyl)-3-benzyl-7-(2-cyclohexylethyl)-9-(cyclopentylmethyl)-17,18-dimethoxy-10-methyl-5,8,11,15-tetraoxo-2,3,4,5,6,7,8,9,10,11,12,13,14,15-tetradecahydrobenzo[p][1]oxa[4,7,10,14]tetraazacycloheptadecine-13-carboxamide] | – | – | 82 | 123 |
| COc1cccc2c1C(=O)N[C@H](C(=O)NCCc1ccc3c(c1)CCCO3)CC(=O)N(C)[C@@H](CC(C)C)C(=O)N(CCC1CCCCC1)CC(=O)N[C@H](Cc1ccccc1)CO2 (racemic) [Example 11, (3R,9S,13RS)-3-benzyl-N-(2-(chroman-6-yl)ethyl)-7-(2-cyclohexylethyl)-9-isobutyl-16-methoxy-10-methyl-5,8,11,15-tetraoxo-2,3,4,5,6,7,8,9,10,11,12,13,14,15-tetradecahydrobenzo[p][1]oxa[4,7,10,14]tetraazacycloheptadecine-13-carboxamide] | – | – | – | 132 |
| COc1cccc2c1C(=O)N[C@H](C(=O)NCCc1ccc3c(c1)OCCCO3)CC(=O)N(C)[C@@H](CC(C)C)C(=O)N(CCC1CCCCC1)CC(=O)N[C@H](Cc1ccccc1)CO2 (racemic) [Example 12, (3R,9S,13RS)-3-benzyl-7-(2-cyclohexylethyl)-N-(2-(3,4-dihydro-2H-benzo[b][1,4]dioxepin-7-yl)ethyl)-9-isobutyl-16-methoxy-10-methyl-5,8,11,15-tetraoxo-2,3,4,5,6,7,8,9,10,11,12,13,14,15-tetradecahydrobenzo[p][1]oxa[4,7,10,14]tetraazacycloheptadecine-13-carboxamide] | – | – | – | 184 |
| COc1cccc2c1C(=O)N[C@H](C(=O)NCCc1ccc3c(c1)COC3)CC(=O)N(C)[C@@H](CC(C)C)C(=O)N(CCC1CCCCC1)CC(=O)N[C@H](Cc1ccccc1)CO2 (racemic) [Example 13, (3R,9S,13RS)-3-benzyl-7-(2-cyclohexylethyl)-N-(2-(1,3-dihydroisobenzofuran-5-yl)ethyl)-9-isobutyl-16-methoxy-10-methyl-5,8,11,15-tetraoxo-2,3,4,5,6,7,8,9,10,11,12,13,14,15-tetradecahydrobenzo[p][1]oxa[4,7,10,14]tetraazacycloheptadecine-13-carboxamide] | – | – | 268 | 153 |
| COc1cccc2c1C(=O)N[C@H](C(=O)NCCc1ccc3ccoc3c1)CC(=O)N(C)[C@@H](CC(C)C)C(=O)N(CCC1CCCCC1)CC(=O)N[C@H](Cc1ccccc1)CO2 (racemic) [Example 14, (3R,9S,13RS)-N-(2-(benzofuran-6-yl)ethyl)-3-benzyl-7-(2-cyclohexylethyl)-9-isobutyl-16-methoxy-10-methyl-5,8,11,15-tetraoxo-2,3,4,5,6,7,8,9,10,11,12,13,14,15-tetradecahydrobenzo[p][1]oxa[4,7,10,14]tetraazacycloheptadecine-13-carboxamide] | – | – | 160 | 185 |
| COc1cccc2c1C(=O)N[C@H](C(=O)NCCc1ccc3c(c1)OCC3)CC(=O)N(C)[C@@H](CC(C)C)C(=O)N(CCC1CCCCC1)CC(=O)N[C@H](Cc1ccccc1)CO2 (racemic) [Example 15, (3R,9S,13RS)-3-benzyl-7-(2-cyclohexylethyl)-N-(2-(2,3-dihydrobenzofuran-6-yl)ethyl)-9-isobutyl-16-methoxy-10-methyl-5,8,11,15-tetraoxo-2,3,4,5,6,7,8,9,10,11,12,13,14,15-tetradecahydrobenzo[p][1]oxa[4,7,10,14]tetraazacycloheptadecine-13-carboxamide] | – | – | – | 240 |
